# Test results from ChEMBL document CHEMBL1201862, “PubChem BioAssay data set” (2004).
# Several values for one entry are separate records, joined by “and”; a condition that tells them apart may be missing. Identical values can stand only once.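 Method: 48-hour compound exposure of cells in 96-well plates, five concentrations, linear interpolation of endpoints. GI50 = concentration required for 50% inhibition of growth.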 Activity calls are given as the source filed them. Rule as the data show it: active = GI50 up to about 1.1 µM and inactive = higher.
# Legend:
# Assay in all cases: growth of human tumour cells (NCI), 48 h
# DMS-114 = system: DMS-114
# DLD-1 = system: DLD-1
# KM-20L2 = system: KM-20L2
# M19-MEL = system: M19-MEL
# XF498 = system: XF498
# DMS-273 = system: DMS-273
# RXF 631 = system: RXF 631
# LXFL 529 = system: LXFL 529
# HOP-18 = system: HOP-18
SMILES,GI50 (DMS-114),GI50 (DLD-1),GI50 (KM-20L2),GI50 (M19-MEL),GI50 (XF498),GI50 (DMS-273),GI50 (RXF 631),GI50 (LXFL 529),GI50 (HOP-18)
CC1C[C@@H]2C(=O)NC(=O)[C@@H]2c2c1c1ccccc1n2C (some centres not stated),> 100 µM (inactive),> 100 µM (inactive),> 100 µM (inactive),> 100 µM (inactive),> 100 µM (inactive),> 100 µM (inactive),> 100 µM (inactive),> 100 µM (inactive),
C=C1C(=O)c2cc3c(cc2C(c2cc(OC)c(OC)c(OC)c2)[C@@H]1C(=O)O)OCO3 (some centres not stated),36.7 µM (inactive),55.3 µM (inactive),,49.1 µM (inactive),,> 10 µM (inactive),,51.5 µM (inactive),> 100 µM (inactive)
CCN(CC)c1ccc2cc3ccc(N(CC)CC)cc3[o+]c2c1,0.687 µM (active),1.39 µM (inactive),1.82 µM (inactive),,1.23 µM (inactive),1.12 µM (active),,0.457 µM (active),
Cc1nc2ccncc2[nH]1,> 100 µM (inactive),> 100 µM (inactive),> 100 µM (inactive),> 100 µM (inactive),58.6 µM (inactive),> 100 µM (inactive),> 100 µM (inactive),> 100 µM (inactive),
COC(=O)CCC(NC(=S)N/N=C/c1ccccn1)C(=O)OC (configuration not stated),> 100 µM (inactive),> 100 µM (inactive),> 100 µM (inactive),> 100 µM (inactive),> 100 µM (inactive),,> 100 µM (inactive),> 100 µM (inactive),> 100 µM (inactive)
N#Cc1cccc(N2C(=O)c3ccc(C(=O)c4ccc5c(c4)C(=O)N(c4cccc(C#N)c4)C5=O)cc3C2=O)c1,> 100 µM (inactive),> 100 µM (inactive),> 100 µM (inactive),> 100 µM (inactive),> 100 µM (inactive),> 100 µM (inactive),,> 100 µM (inactive),> 100 µM (inactive)
NC(CCCC(N)P(=O)(O)O)P(=O)(O)O (configuration not stated),> 100 µM (inactive),> 100 µM (inactive),,> 100 µM (inactive),,> 100 µM (inactive),> 100 µM (inactive),> 100 µM (inactive),> 100 µM (inactive)
COc1nc(=O)n(COC(CO)CN2C(=O)c3ccccc3C2=O)cc1Cc1cccc(OCc2ccccc2)c1 (configuration not stated),22 µM (inactive),28.3 µM (inactive),26.2 µM (inactive),20.7 µM (inactive),,19.4 µM (inactive),,30.1 µM (inactive),27.5 µM (inactive)
COc1ccc(/C(=N/NC(N)=O)C2(O)C(=O)Nc3ccc([N+](=O)[O-])cc32)cc1 (configuration not stated),19.7 µM (inactive),21.3 µM (inactive),22.3 µM (inactive),20.7 µM (inactive),16.5 µM (inactive),18.3 µM (inactive),,18.3 µM (inactive),
CN1c2ccccc2N(C)C2C1N(C)c1ccccc1N2C (configuration not stated),5.71 µM (inactive),14.1 µM (inactive),15.7 µM (inactive),6.84 µM (inactive),7 µM (inactive),8.75 µM (inactive),37.1 µM (inactive),12.6 µM (inactive),
COC(=O)C(Cc1nc2ccc(Cl)cc2nc1O)/C(=N/NC(N)=O)C(=O)Nc1ccc(Cl)cc1 (configuration not stated),> 100 µM (inactive),,> 100 µM (inactive),> 100 µM (inactive),> 100 µM (inactive),> 100 µM (inactive),> 100 µM (inactive),> 100 µM (inactive),> 100 µM (inactive)
Cc1c2cnccc2c(C)c2c1c1ccccc1n2CCOC(=O)c1ccccc1,9.51 µM (inactive),7.69 µM (inactive),6.44 µM (inactive),13.9 µM (inactive),3.27 µM (inactive),4.86 µM (inactive),,,20.7 µM (inactive)
CC(C)(CN1CCCCC1)C(=O)/C=C/c1ccc(Cl)c(Cl)c1,1.56 µM (inactive),1.67 µM (inactive),,1.63 µM (inactive),,1.69 µM (inactive),1.72 µM (inactive),1.46 µM (inactive),1.52 µM (inactive)
Nc1nnc(N)n1N,> 100 µM (inactive),> 100 µM (inactive),,> 100 µM (inactive),28.8 µM (inactive),> 100 µM (inactive),> 100 µM (inactive),> 100 µM (inactive),
C=C=C[P+](c1ccccc1)(c1ccccc1)c1ccccc1,8.69 µM (inactive),5.61 µM (inactive),,14.5 µM (inactive),,27.6 µM (inactive),,3.91 µM (inactive),46.7 µM (inactive)
Cc1nc(C(N)=S)sc1C(=O)CC(=O)C(=O)Nc1ccccc1[N+](=O)[O-],> 100 µM (inactive),> 100 µM (inactive),> 100 µM (inactive),> 100 µM (inactive),,> 100 µM (inactive),> 100 µM (inactive),> 100 µM (inactive),> 100 µM (inactive)
O=C1CC(O)(c2ccccc2)C(c2ccccc2)=C1c1ccccc1 (configuration not stated),26.2 µM (inactive),44.2 µM (inactive),41.8 µM (inactive),29.6 µM (inactive),24.4 µM (inactive),34.6 µM (inactive),,35.3 µM (inactive),
COc1cc2c(cc1OC)C(=O)Cc1ccc(OC)c(OC)c1CN(C)CC2,> 100 µM (inactive),> 100 µM (inactive),> 100 µM (inactive),> 100 µM (inactive),24.5 µM (inactive),> 100 µM (inactive),> 100 µM (inactive),> 100 µM (inactive),32.4 µM (inactive)
C/C=C(\NC(=O)C(CCCCN)NC(=O)C(C)NC(=O)C1CSC(C)C(NC(=O)C2CSCC(NC(=O)C(C)NC(=O)C(N)C(C)CC)C(=O)NC(CCCCN)C(=O)NC(Cc3ccccc3)C(=O)NC(CC(C)C)C(=O)N2)C(=O)N2CCCC2C(=O)NCC(=O)N1)C(=O)NCC(=O)NC1CSCC2NC(=O)C(Cc3ccc(O)cc3)NC(=O)C(CSC=CNC2=O)NC(=O)C(CC(N)=O)NC(=O)C(Cc2ccccc2)NC1=O (configuration not stated),> 100 µM (inactive),> 100 µM (inactive),,67.8 µM (inactive),> 100 µM (inactive),57.1 µM (inactive),,> 100 µM (inactive),
CSc1nc2c(nc(C)c(=O)n2C2OCC(OC(C)=O)C(OC(C)=O)C2OC(C)=O)c(=O)[nH]1 (configuration not stated),> 100 µM (inactive),> 100 µM (inactive),> 100 µM (inactive),> 100 µM (inactive),> 100 µM (inactive),> 100 µM (inactive),,> 100 µM (inactive),
COc1ccc(C2=NN(c3ccccc3)C[N+](c3ccc(OC)cc3)=N2)cc1,24.2 µM (inactive),28.8 µM (inactive),29.6 µM (inactive),30.5 µM (inactive),18.8 µM (inactive),24.5 µM (inactive),,17.2 µM (inactive),
CCOC(=O)Cn1c(=O)n(C)c(=O)c2[nH]cnc21,> 100 µM (inactive),> 100 µM (inactive),,> 100 µM (inactive),> 100 µM (inactive),> 100 µM (inactive),,> 100 µM (inactive),
COc1cc2c(cc1O)[C@H](C)C(c1ccc(Cl)cc1)O2 (some centres not stated),13.9 µM (inactive),24.8 µM (inactive),23.1 µM (inactive),15.8 µM (inactive),15.5 µM (inactive),16.5 µM (inactive),26 µM (inactive),17.2 µM (inactive),36.2 µM (inactive)
CCC(=O)OCOc1ccc(/C=C2\CCC(CN(C)C)C2=O)cc1 (configuration not stated),18.3 µM (inactive),2.19 µM (inactive),13.1 µM (inactive),4.47 µM (inactive),2.14 µM (inactive),3.97 µM (inactive),8.34 µM (inactive),2.94 µM (inactive),15.4 µM (inactive)
COc1ccccc1/C=C1\C(=O)N(C(=O)Cc2ccccc2)N=C1C,> 100 µM (inactive),> 100 µM (inactive),,> 100 µM (inactive),> 100 µM (inactive),> 100 µM (inactive),,,13.1 µM (inactive)
CN(C)[C@@H]1C(O)=C(C(N)=O)C(=O)[C@@]2(O)C(O)=C3C(=O)c4c(O)cccc4C[C@H]3C[C@@H]12,2.52 µM (inactive),2.66 µM (inactive),2.19 µM (inactive),1.68 µM (inactive),,2.17 µM (inactive),,1.92 µM (inactive),1.79 µM (inactive)
O=c1c(Cl)c(Cl)cnn1-c1ccccc1,2.33 µM (inactive) and 1.56 µM (inactive),1.44 µM (inactive) and 2.35 µM (inactive),,3.05 µM (inactive) and 3.13 µM (inactive),2.46 µM (inactive),,,1.67 µM (inactive) and 1.71 µM (inactive),8.53 µM (inactive) and 5.19 µM (inactive)
CC12CCC(=O)N1[C@@H](c1ccccc1)[C@@H](c1ccccc1)O2 (some centres not stated),> 100 µM (inactive),44 µM (inactive),> 100 µM (inactive),> 100 µM (inactive),> 100 µM (inactive),,,> 100 µM (inactive),
O=C(c1ccc(NCN2C(=O)CCC2=O)cc1)c1ccc(NCN2C(=O)CCC2=O)cc1,,> 100 µM (inactive),> 100 µM (inactive),> 100 µM (inactive),> 100 µM (inactive),49.8 µM (inactive),> 100 µM (inactive),> 100 µM (inactive),
COC(=O)c1ccc(CS(=O)(=O)c2ccccc2)cc1,64.3 µM (inactive),91.8 µM (inactive),61.5 µM (inactive),45.4 µM (inactive),> 100 µM (inactive),45.4 µM (inactive),> 100 µM (inactive),> 100 µM (inactive),> 100 µM (inactive)
